# Assay results taken from patent US20100168102A9, “Amide Derivatives as Kinase Inhibitors” (Devgen NV, priority 2005, published 2010).
# Target: T1, human ROCKα/ROCKII mix (Homo sapiens, UniProt O75116)
# T1 construct: purchased Upstate Biotechnology 14-451
# Experiment: Biochemical assay for ROCK (fluorescence polarization, ROCK IMAP Kit)
# Conditions: not given
# Method: The compounds were tested for inhibition of human ROCKα/ROCKII mix.
# The inhibition assays were performed with a fluorescence polarization (FP) assay using the commercially available ROCK IMAP Kit from Molecular Devices (Product ID. No. R8093), essentially in accordance with the protocol supplied by the manufacturer. […] The enzyme mix ROCKα/ROCKII was obtained from Upstate Biotechnology (Product ID No 14-451).
# In summary, the compound was screened in the wells of a 384 well plate for enzymatic inhibition with concentrations varying from 100 μM to 0.3 nM using a stepwise 3 (or 2)-fold dilution.
# To perform the assay, 1 μl of a solution of the compound to be tested in DMSO (at each concentration) was added to 2 μl of a solution of the enzyme in 10 mM Tris-HCl , 10 mM MgCl2, 0.1% BSA, 0.05% NaN3, pH 7.2. The final concentration of the enzyme was 2.6 nM.
# After incubating for 30 minutes at room temperature, 2 μl of a mixture of ATP and the protein substrate in 10 mM Tris-HCl, 10 mM MgCl2, 0.1% BSA, 0.05% NaN3, pH 7.2 was added. The final concentration of the ATP was 10 μM and final concentration of protein substrate was 0.2 μM.
# After incubating for 60 minutes at room temperature, 12 μl of the IMAP Binding Solution (mix of the IMAP Binding Buffer A (1×) and the IMAP Binding Reagent (from the ROCK IMAP kit)) was added.
# The mixture thus obtained (total volume: 17 μl) was incubated for 60 minutes at room temperature, upon which the fluorescence polarization was measured using an automated plate reader (Perkin Elmer, Model Envision 2100-0010 HTS) with FP filters: excitation filter FITC FP 480 and emission filters FITC FP P-pol 535 and FITC FP S-pol 535 (Perkin-Elmer). The results were fitted to a curve using the XL-Fit algorithm and IC50 values were calculated for each fitted curve, again using the XL-Fit algorithm.
# T1 sequence (O75116 11-552 limits assumed): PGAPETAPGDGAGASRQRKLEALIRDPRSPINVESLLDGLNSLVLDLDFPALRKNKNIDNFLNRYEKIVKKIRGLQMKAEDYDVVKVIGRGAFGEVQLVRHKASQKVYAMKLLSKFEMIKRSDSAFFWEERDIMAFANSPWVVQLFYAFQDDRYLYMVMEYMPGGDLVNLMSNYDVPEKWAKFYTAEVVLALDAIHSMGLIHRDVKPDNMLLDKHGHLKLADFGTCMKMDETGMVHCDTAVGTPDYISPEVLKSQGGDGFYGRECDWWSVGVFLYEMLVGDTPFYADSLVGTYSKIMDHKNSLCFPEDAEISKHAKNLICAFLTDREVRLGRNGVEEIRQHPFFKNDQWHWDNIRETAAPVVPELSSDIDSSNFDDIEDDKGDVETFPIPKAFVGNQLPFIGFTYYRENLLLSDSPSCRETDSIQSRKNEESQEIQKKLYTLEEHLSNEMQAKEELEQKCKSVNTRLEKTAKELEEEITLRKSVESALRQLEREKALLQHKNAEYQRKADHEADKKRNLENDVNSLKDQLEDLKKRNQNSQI
row,IC50 [µM],Compound
1,0.5 to 5,4-(1-Amino-2-{[1-(4-chloro- phenyl)- cyclobutanecarbonyl]- methyl- amino}-ethyl)- N-pyridin-4-yl-benzamide [Compound 464]
2,0.5 to 5,4-(1-Amino-2-{[1-(4-chloro- phenyl)- cyclopentanecarbonyl]- methyl- amino}-ethyl)- N-pyridin-4-yl-benzamide [Compound 465]
3,0.5 to 5,4-(1-Amino-2-{[1-(4-chloro- phenyl)- cyclopropanecarbonyl]- methyl- amino}-ethyl)- N-pyridin-4-yl-benzamide [Compound 463]
4,0.5 to 5,4-(1-Amino-2-{[1-(4-fluoro- phenyl)- cyclopropanecarbonyl]- methyl- amino}-ethyl)- N-pyridin-4-yl-benzamide [Compound 473]
5,5 to 50,"4-(1-Amino-2-{[2-(2,3,4- trimethoxy-phenyl)-acetyl]- methyl-amino}-ethyl)-N- pyridin-4-yl-benzamide [Compound 431]"
6,0.5 to 5,4-(1-Amino-2-{[2-(4-chloro- phenyl)-2-methyl-propionyl]- methyl- amino}-ethyl)- N-pyridin-4-yl-benzamide [Compound 462]
7,0.5 to 5,4-(1-Amino-2-{[2-(4-fluoro- phenyl)-2-methyl-propionyl]- methyl- amino}-ethyl)- N-pyridin-4-yl-benzamide [Compound 472]
8,0.5 to 5,4-(Amino-{1-[2-(4-fluoro-phenyl)-2-methyl-propionyl]-pyrrolidin-2-yl}-methyl)-N-pyridin-4-yl-benzamide [Compound 586]
9,0.5 to 5,4-{Amino-[1-(2-methyl-2-thiophen-2-yl-propionyl)-pyrrolidin-2-yl]-methyl}-N-pyridin-4-yl-benzamide [Compound 548]
10,0.05 to 0.5,"Cc1ccccc1CNC(=O)NCC(N)c1ccc(C(=O)Nc2ccncc2)cc1 (stereo not drawn) [Compound 9, 4-{1-amino-2-[3-(2-methyl-benzyl)-ureido]-ethyl}-N-pyridin-4-yl-benzamide]"
11,0.05 to 0.5,"COc1ccc(CNC(=O)NCC(N)c2ccc(C(=O)Nc3ccncc3)cc2)cc1 (stereo not drawn) [Compound 10, 4-{1-amino-2-[3-(4-methoxy-benzyl)-ureido]-ethyl}-N-pyridin-4-yl-benzamide]"
12,0.05 to 0.5,"NC(CNC(=O)Nc1ccc(F)cc1)c1ccc(C(=O)Nc2ccncc2)cc1 (stereo not drawn) [Compound 19, 4-{1-amino-2-[3-(4-fluoro-phenyl)-ureido]-ethyl}-N-pyridin-4-yl-benzamide]"
13,0.05 to 0.5,"COc1ccc(Cl)cc1NC(=O)NCC(N)c1ccc(C(=O)Nc2ccncc2)cc1 (stereo not drawn) [Compound 27, 4-{1-amino-2-[3-(5-chloro-2-methoxy-phenyl)-ureido]-ethyl}-N-pyridin-4-yl-benzamide]"
14,0.5 to 5,"CN(CC(N)c1ccc(C(=O)Nc2ccncc2)cc1)C(=O)Cc1ccc(F)c(F)c1 (stereo not drawn) [Compound 484, 4-(1-Amino-2-{[2-(3,4-difluoro-phenyl)-acetyl]-methyl-amino}-ethyl)-N-pyridin-4-yl-benzamide]"

# Same assay, conditions: Table 2, compounds of Formula XIII
row,IC50 [µM],Compound
1,0.05 to 0.5,"NC(CNC(=O)c1ccc2ccccc2n1)c1ccc(C(=O)Nc2ccncc2)cc1 (stereo not drawn) [Compound 112, Quinoline-2-carboxylic acid {2-amino-2-[4-(pyridin-4-ylcarbamoyl)-phenyl]-ethyl}-amide]"

# Same assay, conditions: compounds of Formula XIV, Table 3
row,IC50 [µM],Compound
1,0.05 to 0.5,4-[1-Amino-2-(methyl- phenethyl-carbamoyl)-ethyl]- N-pyridin-4-yl-benzamide [Compound 282]
2,0.05 to 0.5,"CN(Cc1ccccc1)C(=O)CC(N)c1ccc(C(=O)Nc2ccncc2)cc1 (stereo not drawn) [Compound 214, 4-[1-Amino-2-(benzyl-methyl-carbamoyl)-ethyl]-N-pyridin-4-yl-benzamide]"
3,0.05 to 0.5,"Cc1ccc(NC(=O)CC(N)c2ccc(C(=O)Nc3ccncc3)cc2)cc1 (stereo not drawn) [Compound 317, 4-(1-Amino-2-p-tolylcarbamoyl-ethyl)-N-pyridin-4-yl-benzamide]"
